From patent US9834559B2, “4-Amino-6-phenyl-5,6-dihydroimidazo[1,5-a]pyrazin-3(2H)-one derivatives as inhibitors of beta-secretase (BACE)” (Janssen Pharmaceutica NV, priority 2013, dated 2017) come the findings set out here.

In data set [1] the target is recombinant BACE1 protein (Homo sapiens, UniProt P56817). The data set is described as follows: BACE1 biochemical FRET based assay. Conditions: BACE1 0.04 μg/ml, 20 μM substrate, pH 5.0, 450 min; read-out: Biochemical FRET based assay pIC50 (converted). The text has this:
(§1) This assay is a Fluorescence Resonance Energy Transfer Assay (FRET) based assay. The substrate for this assay is an APP derived 13 amino acids peptide that contains the ‘Swedish’ Lys-Met/Asn-Leu mutation of the amyloid precursor protein (APP) beta-secretase cleavage site. This substrate also contains two fluorophores: (7-methoxycoumarin-4-yl) acetic acid (Mca) is a fluorescent donor with excitation wavelength at 320 nm and emission at 405 nm and 2,4-Dinitrophenyl (Dnp) is a proprietary quencher acceptor. […] Upon cleavage by BACE1, the fluorophore Mca is separated from the quenching group Dnp, restoring the full fluorescence yield of the donor. The increase in fluorescence is linearly related to the rate of proteolysis.
Briefly in a 384-well format recombinant BACE1 protein in a final concentration of 0.04 μg/ml is incubated for 450 minutes at room temperature with 20 μM substrate in incubation buffer (50 mM Citrate buffer pH 5.0, 0.05% PEG) in the presence of compound or DMSO. Next the amount of proteolysis is directly measured by fluorescence measurement (excitation at 320 nm and emission at 405 nm) at different incubation times (0, 30, 60, 90, 120 and 450 min). For every experiment a time curve (every 30 min between 0 min and 120 min) is used to determine the time where we find the lowest basal signal of the high control. The signal at this time (Tx) is used to subtract from the signal at 450 min. Results are expressed in RFU, as difference between T450 and Tx.
(§2) A best-fit curve is fitted by a minimum sum of squares method to the plot of % Controlmin versus compound concentration. From this an IC50 value (inhibitory concentration causing 50% inhibition of activity) can be obtained. • LC=Median of the low control values • =Low control: Reaction without enzyme • HC=Median of the High control values • =High Control: Reaction with enzyme • % Effect=100−[(sample−LC)/(HC−LC)*100] • % Control=(sample/HC)*100 • % Controlmin=(sample−LC)/(HC−LC)*100

The subject of data set [2] is Abeta 1-42 produced and secreted by human neuroblastoma SKNBE2 cells expressing hAPP695. Description: Cellular αLisa assay in SKNBE2 cells, Abeta 1-42. In kind it is cell-based. Conditions: 18 hours incubation, read-out: Cellular αLisa assay in SKNBE2 cells Abeta 42 pIC50 (converted). As to the method:
(§3) In two αLisa assays the levels of Abeta total and Abeta 1-42 produced and secreted into the medium of human neuroblastoma SKNBE2 cells are quantified. The assay is based on the human neuroblastoma SKNBE2 expressing the wild type Amyloid Precursor Protein (hAPP695). The compounds are diluted and added to these cells, incubated for 18 hours and then measurements of Abeta 1-42 and Abeta total are taken. Abeta total and Abeta 1-42 are measured by sandwich αLisa. αLisa is a sandwich assay using biotinylated antibody AbN/25 attached to streptavidin coated beads and antibody Ab4G8 or cAb42/26 conjugated acceptor beads for the detection of Abeta total and Abeta 1-42 respectively. In the presence of Abeta total or Abeta 1-42, the beads come into close proximity. The excitation of the donor beads provokes the release of singlet oxygen molecules that trigger a cascade of energy transfer in the acceptor beads, resulting in light emission. Light emission is measured after 1 hour incubation (excitation at […] and emission at 615 nm).
(§4) A best-fit curve is fitted by a minimum sum of squares method to the plot of % Controlmin versus compound concentration. From this an IC50 value (inhibitory concentration causing 50% inhibition of activity) can be obtained. • LC=Median of the low control values • =Low control: cells preincubated without compound, without biotinylated Ab in the αLisa • HC=Median of the High control values • =High Control: cells preincubated without compound • % Effect=100−[(sample−LC)/(HC−LC)*100] • % Control=(sample/HC)*100 • % Controlmin=(sample−LC)/(HC−LC)*100

The test system of data set [3] is Abeta total produced and secreted by human neuroblastoma SKNBE2 cells expressing hAPP695. Description: Cellular αLisa assay in SKNBE2 cells, Abeta total. In kind it is cell-based. The settings on record: 18 hours incubation, read-out: Cellular αLisa assay in SKNBE2 cells Abetatotal pIC50 (converted). As to the method:
as §3, §4

For data set [4], the target named is T1, recombinant BACE2 protein (Homo sapiens, UniProt Q9Y5Z0).
T1 sequence (Q9Y5Z0 63-518): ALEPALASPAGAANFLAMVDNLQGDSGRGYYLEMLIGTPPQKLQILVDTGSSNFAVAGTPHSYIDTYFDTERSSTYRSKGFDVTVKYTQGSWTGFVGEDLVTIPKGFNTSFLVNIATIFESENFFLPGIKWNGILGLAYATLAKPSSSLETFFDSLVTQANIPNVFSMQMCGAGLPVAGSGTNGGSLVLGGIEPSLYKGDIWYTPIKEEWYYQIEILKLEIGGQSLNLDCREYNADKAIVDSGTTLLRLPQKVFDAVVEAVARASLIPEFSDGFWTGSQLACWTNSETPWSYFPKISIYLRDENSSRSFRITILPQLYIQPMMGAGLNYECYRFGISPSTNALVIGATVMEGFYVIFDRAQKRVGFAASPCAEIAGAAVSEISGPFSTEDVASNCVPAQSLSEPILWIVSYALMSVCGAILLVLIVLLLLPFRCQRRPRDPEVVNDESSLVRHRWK
The data set is described as follows: BACE2 biochemical FRET based assay. The settings on record: BACE2 0.4 μg/ml, 10 μM substrate, pH 5.0, 450 min; read-out: BACE2 Biochemical FRET based assay pIC50 (converted).
From the text: as §1, with “assay” for “assay is an APP derived 13 amino acids peptide that”, “the beta-secretase,” for “BACE1,”
Briefly in a 384-well format recombinant BACE2 protein in a final concentration of 0.4 μg/ml is incubated for 450 minutes at room temperature with 10 μM substrate in incubation buffer (50 mM Citrate buffer pH 5.0, 0.05% PEG, no DMSO) in the absence or presence of compound. Next the amount of proteolysis is directly measured by fluorescence measurement at T=0 and T=450 (excitation at 320 nm and emission at 405 nm). Results are expressed in RFU (Relative Fluorescence Units), as difference between T450 and T0.
as §2

Sequence of recombinant BACE1 protein (P56817 46-501): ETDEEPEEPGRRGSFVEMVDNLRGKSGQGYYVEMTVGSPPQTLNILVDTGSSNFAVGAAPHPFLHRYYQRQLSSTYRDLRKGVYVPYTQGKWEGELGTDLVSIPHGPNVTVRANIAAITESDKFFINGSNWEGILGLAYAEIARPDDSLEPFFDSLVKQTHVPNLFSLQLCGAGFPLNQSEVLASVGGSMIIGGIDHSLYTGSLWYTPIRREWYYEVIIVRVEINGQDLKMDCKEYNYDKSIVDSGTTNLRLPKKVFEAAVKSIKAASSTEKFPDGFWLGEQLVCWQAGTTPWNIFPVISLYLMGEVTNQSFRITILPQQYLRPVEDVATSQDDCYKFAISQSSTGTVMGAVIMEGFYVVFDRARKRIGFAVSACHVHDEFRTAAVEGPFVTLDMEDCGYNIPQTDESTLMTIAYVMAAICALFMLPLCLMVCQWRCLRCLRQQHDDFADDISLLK

On to `Cn1cc2n(c1=O)C[C@@](C)(c1cc(-c3cncnc3)ccc1F)N=C2N` [Compound 2, (6R)-8-Amino-6-(2-fluoro-5-pyrimidin-5-ylphenyl)-2,6-dimethyl-5,6-dihydro-imidazo[1,5-a]pyrazin-3(2H)-one], for which the melting point (commonly the temperature of the solid-liquid transition) came to 239.1 °C. The IC50 in data set [1] is 490 nM. Moreover, the IC50 in data set [2] was 1260 nM. In addition, the IC50 in data set [3] was 1020 nM. Moreover, the IC50 in data set [4] was 7080 nM.

Consider `COc1cnc(C(=O)Nc2ccc(F)c([C@]3(C)Cn4c(cn(C)c4=O)C(N)=N3)c2)cn1` [Compound 5, N-{3-[(6R)-8-amino-2,6-dimethyl-3-oxo-2,3,5,6-tetrahydroimidazo[1,5-a]pyrazin-6-yl]-4-fluorophenyl}-5-methoxypyrazine-2-carboxamide], for which the IC50 in data set [1] is 9.55 nM; in data set [2] it was 36.3 nM; in data set [3], 29.5 nM; in data set [4], 100 nM.

For `Cn1cc2n(c1=O)C[C@@](C)(c1cc(NC(=O)c3ccc(F)cn3)ccc1F)N=C2N` [Compound 6, N-{3-[(6R)-8-amino-2,6-dimethyl-3-oxo-2,3,5,6-tetrahydroimidazo[1,5-a]pyrazin-6-yl]-4-fluorophenyl}-5-fluoropyridine-2-carboxamide], the IC50 in data set [1] is 15.1 nM; in data set [2], 87.1 nM; in data set [3] it was 89.1 nM; in data set [4], 13.2 nM.

As to `C[C@@]1(c2cc(NC(=O)c3ccc(F)cn3)ccc2F)Cn2c(cn(CC(F)(F)F)c2=O)C(N)=N1` [Compound 7, N-{3-[(6R)-8-amino-6-methyl-3-oxo-2-(2,2,2-trifluoroethyl)-2,3,5,6-tetrahydroimidazo[1,5-a]pyrazin-6-yl]-4-fluorophenyl}-5-fluoropyridine-2-carboxamide], the melting point was determined as 239.9 °C. In data set [1], the IC50 is 12.3 nM. Moreover, in data set [2], the IC50 is 18.6 nM. The IC50 in data set [3] is 16.6 nM. The IC50 in data set [4] is 7.41 nM.

For `C[C@@]1(c2cc(NC(=O)c3ccc(Cl)cn3)ccc2F)Cn2c(cn(CC(F)(F)F)c2=O)C(N)=N1` [Compound 8, N-{3-[(6R)-8-amino-6-methyl-3-oxo-2-(2,2,2-trifluoroethyl)-2,3,5,6-tetrahydroimidazo[1,5-a]pyrazin-6-yl]-4-fluorophenyl}-5-chloropyridine-2-carboxamide], the melting point turned out to be 219.9 °C. For the same compound, the IC50 in data set [1] is 4.68 nM. For the same compound, in data set [2], the IC50 was 5.62 nM. Further, the IC50 in data set [3] is 4.79 nM. Moreover, the IC50 in data set [4] was 6.61 nM.

With `Cc1cc(C#N)cnc1C(=O)Nc1ccc(F)c([C@]2(C)Cn3c(cn(C)c3=O)C(N)=N2)c1` [Compound 9, N-{3-[(6R)-8-amino-2,6-dimethyl-3-oxo-2,3,5,6-tetrahydroimidazo[1,5-a]pyrazin-6-yl]-4-fluorophenyl}-5-cyano-3-methylpyridine-2-carboxamide], the IC50 in data set [1] was 7.76 nM; in data set [2], 38.9 nM; in data set [3], 33.1 nM; in data set [4] it was 22.9 nM.

With `C[C@@]1(c2cc(NC(=O)c3ccc(C#N)cn3)ccc2F)Cn2c(cn(CC(F)(F)F)c2=O)C(N)=N1` [Compound 10, N-{3-[(6R)-8-amino-6-methyl-3-oxo-2-(2,2,2-trifluoroethyl)-2,3,5,6-tetrahydroimidazo[1,5-a]pyrazin-6-yl]-4-fluorophenyl}-5-cyanopyridine-2-carboxamide], the melting point is 235 °C. Moreover, the IC50 in data set [1] is 5.62 nM. Besides, in data set [2], the IC50 was 12.6 nM. Further, the IC50 in data set [3] is 10.7 nM. Besides, in data set [4], the IC50 is 12 nM.

Consider `COc1cnc(C(=O)Nc2ccc(F)c([C@]3(C)Cn4c(cn(CC(F)(F)F)c4=O)C(N)=N3)c2)cn1` [Compound 11, N-{3-[(6R)-8-amino-6-methyl-3-oxo-2-(2,2,2-trifluoroethyl)-2,3,5,6-tetrahydroimidazo[1,5-a]pyrazin-6-yl]-4-fluorophenyl}-5-methoxypyrazine-2-carboxamide], for which the melting point is 280.5 °C. In addition, the IC50 in data set [1] was 8.71 nM. In addition, the IC50 in data set [2] is 12.3 nM. Further, the IC50 in data set [3] was 10 nM. In addition, the IC50 in data set [4] is 55 nM.
